One assay relates to veines saphènes de lapin. As to the kind of experiment: Contraction of isolated rabbit saphenous vein rings produced by KCl (depolarisation). To be noted: for augmentent les contractions des veines saphènes de lapin produites par le KCl: KCl 40 mM, compounds 10 nM à 30 mM; for EC50: increase of contractions produced by KCl 40 mM, read-out: DE₅₀. An excerpt: (§1) Pour l'étude in vitro, les composés sont solubilisés en solution aqueuse pure ou contenant du DMSO ou de l'alcool.
L'effet contractile est mesuré in vitro : • par la force de contraction développée par des anneaux vasculaires quiescents ou stimulés (soit électriquement soit par des agents physiologiques) et maintenus dans des conditions isométriques, • par la pression développée par des réseaux vasculaires perfusés à débit constant.
Les composés de l'invention et leurs sels éventuels augmentent la contraction des veines saphènes animales produite par la noradrénaline et la dépolarisation (solution hyperpotassique) sans affecter, dans la majorité des cas, les réponses contractiles artérielles. A titre illustratif, les composés des exemples 2, 3, 4, 7, et 9 (10 nM à 30 mM) augmentent de plus de 40 % (DE₅₀ ± 0,3 microM) les contractions des veines saphènes de lapin produites par le KCl (40 mM).

A further assay has as its system pleurésie chez le rat. As to the kind of experiment: Carrageenan-induced pleurisy (oedema and leukocyte migration). Type of assay: in vivo. To be noted: 5 mg/kg i.p. given twice, 6 hours after carrageenan injection into the pleural cavity. An excerpt: (§2) Pour l'étude in vivo, ils sont administrés par voie intra-veineuse sous forme de solution aqueuse pure, par voie intrapéritonéale sous forme de solution aqueuse contenant ou non du DMSO ou par voie orale en solution ou en suspension dans la carboxyméthylcellulose ou dans une solution aqueuse composée contenant du Tween^(R) et dans certains cas du DMSO (diméthylsulfoxyde).
L'activité antiinflammatoire est démontrée par la mesure de l'inhibition de l'oedème et de la migration leucocytaire après induction d'une pleurésie chez le rat par injection de carragénine dans la cavité pleurale (Almeida et col., J. Pharmacol. Exp. Therap., 1980, 214 : 74).
Le composé des exemples 3 et 4 administrés deux fois en i.p. à la dose de 5 mg/kg inhibent l'oedème et la migration leucocytaire dans la cavité pleurale, 6 heures après injection de carragénine dans le modèle de la pleurésie chez le rat.

Assay [1] relates to hyperperméabilité vasculaire induite par le zymosan. Put plainly: Vascular hyperpermeability induced by zymosan (extravasation of albumin or Evans blue). Type of assay: in vivo. To be noted: oral administration of 1-20 mg/kg.
Excerpt: as §2
La perméabilité vasculaire est étudiée in vivo et in vitro par la mesure de l'extravasation d'albumine ou de colorant liant l'albumine (Bleu Evans). In vivo, l'hyperperméabilité est induite par l'injection d'une solution d'histamine, de bradykinine ou de zymosan. Les modèles in vitro permettent de réaliser des hyperpressions (sur un territoire vasculaire isolé) et/ou des réactions vasculaires inflammatoires.
A titre illustratif, les composés des exemples 1, 3, 6 et 9 inhibent l'hyperperméabilité vasculaire induite par le zymosan après administration orale de 1-20 mg/kg.

A short description of assay [2]: Free radical scavenging with DPPH as stable free radical. Type of assay: physicochemical. To be noted: DPPH model, in vitro.
Excerpt: as §1
L'effet "piégeur de radicaux libres" global est étudié in vitro par un modèle utilisant le 1,1-diphényl-2-picrylhydrazyl (DPPH) comme radical libre stable, méthode dérivée de celle décrite par Lamaison et col., Plantes Médic. et Phytothérapie, XXII, 1988, 231-234.
On the technique in general: DPPH is a stable violet radical that fades when it is reduced.

From EP0650958A1, “Hydrazones of indane-triones and their application in therapy” (LABORATOIRE INNOTHERA Société Anonyme, priority 1993, dated 1995) come the findings set out here.

Counter-ions that a name gives are not always drawn.

On to `Nc1ccc(C(=O)NN=c2c(=O)c3ccccc3c2=O)cc1` [exemple 3, 2-(4-Aminophenylcarbonylhydrazono)-2.3-dihydro-1.3-dioxo-1H-indene, chlorhydrate], for which, in the assay with veines saphènes de lapin, the “augmentent les contractions des veines saphènes de lapin produites par le KCl” value is recorded as above 40% and the EC50 is around 300 nM. Moreover, in the assay on pleurésie chez le rat, the “migration leucocytaire dans la cavité pleurale” value is reported as “inhibent” and the oedème result is “inhibent”. Besides, the “hyperperméabilité vasculaire induite par le zymosan” value in assay [1] is given as “inhibent”.
With `O=C(NN=c1c(=O)c2ccccc2c1=O)n1cccc1` [exemple 1, 2.3-Dihydro-1.3-dioxo-2-(pyrrol-1-yl-carbonylhydrazono)-1H-indene], the “hyperperméabilité vasculaire induite par le zymosan” value in assay [1] is listed as “inhibent”.
With `O=C(NN=c1c(=O)c2ccccc2c1=O)c1cccnc1` [exemple 6, 2.3-Dihydro-1.3-dioxo-2-[(3-pyridyl)carbonylhydrazono]-1H-indene, maleate], the effet antiradicalaire entry in assay [2] is recorded as “présentent un effet antiradicalaire”. In assay [1], the “hyperperméabilité vasculaire induite par le zymosan” value is “inhibent”.
As for `O=C(NN=c1c(=O)c2ccccc2c1=O)c1cccnc1` [exemple 2, 2.3-Dihydro-1.3-dioxo-2-[(3-pyridyl)carbonylhydrazono]-1H-indene, chlorhydrate], in the assay on veines saphènes de lapin, the “augmentent les contractions des veines saphènes de lapin produites par le KCl” value is on record as above 40% and the EC50 is around 300 nM.
